Measured values from patent publication US20240059671A1, “TYROSINE KINASE 2 (TYK2) DEGRADATION COMPOUNDS AND METHODS OF USE” (CULLGEN (SHANGHAI), INC., priority 2020, published 2024).

Molecular target: TYK2 (Homo sapiens, UniProt P29597)
Assay: TYK2 protein degradation in MOLT-4 cells by immunoblotting
Assay type: cell-based
Set-up: endogenous in cells; host or cells: MOLT-4
Details: MOLT-4 cells, 24 hours
How it was run: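 MOLT-4 cells were exposed to compounds at 0.5 and 5 μM for 24 h, then lysed in RIPA buffer with protease and phosphatase inhibitors. TYK2 was detected by SDS-PAGE immunoblot with chemiluminescence, and band densitometry gave percent degradation.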

Chain of TYK2 (P29597 whole entry): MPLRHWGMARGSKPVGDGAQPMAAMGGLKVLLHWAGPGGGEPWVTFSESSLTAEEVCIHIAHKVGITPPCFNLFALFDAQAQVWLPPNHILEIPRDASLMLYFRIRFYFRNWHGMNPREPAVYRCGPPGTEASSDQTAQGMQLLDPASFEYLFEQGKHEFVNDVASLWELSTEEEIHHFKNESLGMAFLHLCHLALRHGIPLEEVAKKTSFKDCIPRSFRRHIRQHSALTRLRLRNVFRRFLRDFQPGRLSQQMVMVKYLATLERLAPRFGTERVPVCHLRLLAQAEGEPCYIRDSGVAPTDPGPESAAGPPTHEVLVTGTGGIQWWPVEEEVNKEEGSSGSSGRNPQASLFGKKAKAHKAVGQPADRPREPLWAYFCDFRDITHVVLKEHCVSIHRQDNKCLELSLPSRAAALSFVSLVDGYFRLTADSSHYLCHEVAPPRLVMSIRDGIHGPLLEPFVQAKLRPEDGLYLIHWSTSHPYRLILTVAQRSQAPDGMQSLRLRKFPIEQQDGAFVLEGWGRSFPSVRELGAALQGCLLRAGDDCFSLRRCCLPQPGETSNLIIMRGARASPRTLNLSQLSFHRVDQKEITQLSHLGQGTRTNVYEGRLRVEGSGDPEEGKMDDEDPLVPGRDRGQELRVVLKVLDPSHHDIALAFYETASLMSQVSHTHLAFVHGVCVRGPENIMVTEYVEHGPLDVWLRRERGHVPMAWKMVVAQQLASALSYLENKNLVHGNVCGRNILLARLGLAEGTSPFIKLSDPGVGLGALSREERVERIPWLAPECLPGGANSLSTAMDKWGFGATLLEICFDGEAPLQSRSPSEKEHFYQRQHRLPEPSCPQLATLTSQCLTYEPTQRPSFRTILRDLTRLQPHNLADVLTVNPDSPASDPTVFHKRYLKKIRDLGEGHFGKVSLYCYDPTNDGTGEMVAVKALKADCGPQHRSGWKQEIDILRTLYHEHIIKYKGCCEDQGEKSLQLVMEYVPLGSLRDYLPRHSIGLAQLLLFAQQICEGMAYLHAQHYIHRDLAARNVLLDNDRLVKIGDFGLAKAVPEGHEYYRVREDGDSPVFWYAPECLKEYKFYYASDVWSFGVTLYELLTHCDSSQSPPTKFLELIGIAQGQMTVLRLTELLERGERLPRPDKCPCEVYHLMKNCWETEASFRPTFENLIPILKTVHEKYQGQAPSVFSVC

SMILES | TYK2 Degradation (MOLT-4, 0.5 μM) | TYK2 Degradation (MOLT-4, 5 μM)
CNC(=O)c1nnc(NC(=O)CNC(=O)CCCCCCCCCCNC(=O)C[C@H](NC(=O)[C@@H]2C[C@@H](O)CN2C(=O)[C@@H](NC(=O)C2(F)CC2)C(C)(C)C)c2ccc(-c3scnc3C)cc2)cc1Nc1cccc(-c2ncn(C)n2)c1OC [CPD-095, 6-(2-(11-((S)-3-((2S,4R)-1-((S)-2-(1-Fluorocyclopropane-1-carboxamido)-3,3-dimethylbutanoyl)-4-hydroxypyrrolidine-2-carboxamido)-3-(4-(4-methylthiazol-5-yl)phenyl)propanamido)undecanamido)acetamido)-4-((2-methoxy-3-(1-methyl-1H-1,2,4-triazol-3-yl)phenyl)amino)-N-methylpyridazine-3-carboxamide] | B (B: <60% TYK2 degradation, and >20% TYK2 degradation) | A (A: ≥60% TYK2 degradation)
CNC(=O)c1nnc(Nc2ccc(N3CCN(C(=O)CCC(=O)N[C@H](C(=O)N4C[C@H](O)C[C@H]4C(=O)NCc4ccc(-c5scnc5C)cc4)C(C)(C)C)CC3)cn2)cc1Nc1cccc(-c2ncn(C)n2)c1OC [CPD-096, 6-((5-(4-(4-(((S)-1-((2S,4R)-4-Hydroxy-2-((4-(4-methylthiazol-5-yl)benzyl)carbamoyl)pyrrolidin-1-yl)-3,3-dimethyl-1-oxobutan-2-yl)amino)-4-oxobutanoyl)piperazin-1-yl)pyridin-2-yl)amino)-4-((2-methoxy-3-(1-methyl-1H-1,2,4-triazol-3-yl)phenyl)amino)-N-methylpyridazine-3-carboxamide] | B (B: <60% TYK2 degradation, and >20% TYK2 degradation) | C (C: ≤20% TYK2 degradation)
CNC(=O)c1nnc(Nc2ccc(N3CCN(C(=O)CCCC(=O)N[C@H](C(=O)N4C[C@H](O)C[C@H]4C(=O)NCc4ccc(-c5scnc5C)cc4)C(C)(C)C)CC3)cn2)cc1Nc1cccc(-c2ncn(C)n2)c1OC [CPD-097, 6-((5-(4-(5-(((S)-1-((2S,4R)-4-Hydroxy-2-((4-(4-methylthiazol-5-yl)benzyl)carbamoyl)pyrrolidin-1-yl)-3,3-dimethyl-1-oxobutan-2-yl)amino)-5-oxopentanoyl)piperazin-1-yl)pyridin-2-yl)amino)-4-((2-methoxy-3-(1-methyl-1H-1,2,4-triazol-3-yl)phenyl)amino)-N-methylpyridazine-3-carboxamide] | B (B: <60% TYK2 degradation, and >20% TYK2 degradation) | C (C: ≤20% TYK2 degradation)
CNC(=O)c1nnc(Nc2ccc(N3CCN(C(=O)CCCCC(=O)N[C@H](C(=O)N4C[C@H](O)C[C@H]4C(=O)NCc4ccc(-c5scnc5C)cc4)C(C)(C)C)CC3)cn2)cc1Nc1cccc(-c2ncn(C)n2)c1OC [CPD-098, 6-((5-(4-(6-(((S)-1-((2S,4R)-4-Hydroxy-2-((4-(4-methylthiazol-5-yl)benzyl)carbamoyl)pyrrolidin-1-yl)-3,3-dimethyl-1-oxobutan-2-yl)amino)-6-oxohexanoyl)piperazin-1-yl)pyridin-2-yl)amino)-4-((2-methoxy-3-(1-methyl-1H-1,2,4-triazol-3-yl)phenyl)amino)-N-methylpyridazine-3-carboxamide] | C (C: ≤20% TYK2 degradation) | C (C: ≤20% TYK2 degradation)
CNC(=O)c1nnc(Nc2ccc(N3CCN(C(=O)CCCCCC(=O)N[C@H](C(=O)N4C[C@H](O)C[C@H]4C(=O)NCc4ccc(-c5scnc5C)cc4)C(C)(C)C)CC3)cn2)cc1Nc1cccc(-c2ncn(C)n2)c1OC [CPD-099, 6-((5-(4-(7-(((S)-1-((2S,4R)-4-hydroxy-2-((4-(4-methylthiazol-5-yl)benzyl)carbamoyl)pyrrolidin-1-yl)-3,3-dimethyl-1-oxobutan-2-yl)amino)-7-oxoheptanoyl)piperazin-1-yl)pyridin-2-yl)amino)-4-((2-methoxy-3-(1-methyl-JH-1,2,4-triazol-3-yl)phenyl)amino)-N-methylpyridazine-3-carboxamide] | A (A: ≥60% TYK2 degradation) | B (B: <60% TYK2 degradation, and >20% TYK2 degradation)
CNC(=O)c1nnc(Nc2ccc(N3CCN(C(=O)CCCCCCC(=O)N[C@H](C(=O)N4C[C@H](O)C[C@H]4C(=O)NCc4ccc(-c5scnc5C)cc4)C(C)(C)C)CC3)cn2)cc1Nc1cccc(-c2ncn(C)n2)c1OC [CPD-100, 6-((5-(4-(8-(((S)-1-((2S,4R)-4-hydroxy-2-((4-(4-methylthiazol-5-yl)benzyl)carbamoyl)pyrrolidin-1-yl)-3,3-dimethyl-1-oxobutan-2-yl)amino)-8-oxooctanoyl)piperazin-1-yl)pyridin-2-yl)amino)-4-((2-methoxy-3-(1-methyl-1H-1,2,4-triazol-3-yl)phenyl)amino)-N-methylpyridazine-3-carboxamide] | A (A: ≥60% TYK2 degradation) | B (B: <60% TYK2 degradation, and >20% TYK2 degradation)
CNC(=O)c1nnc(NC(=O)CNC(=O)COc2cc(-c3scnc3C)ccc2CNC(=O)[C@@H]2C[C@@H](O)CN2C(=O)[C@@H](NC(=O)C2(F)CC2)C(C)(C)C)cc1Nc1cccc(-c2ncn(C)n2)c1OC [CPD-101, 6-(2-(2-(2-(((2S,4R)-1-((S)-2-(1-Fluorocyclopropane-1-carboxamido)-3,3-dimethylbutanoyl)-4-hydroxypyrrolidine-2-carboxamido)methyl)-5-(4-methylthiazol-5-yl)phenoxy)acetamido)acetamido)-4-((2-methoxy-3-(1-methyl-1H-1,2,4-triazol-3-yl)phenyl)amino)-N-methylpyridazine-3-carboxamide] | C (C: ≤20% TYK2 degradation) | C (C: ≤20% TYK2 degradation)
CNC(=O)c1nnc(NC(=O)CNC(=O)CCOc2cc(-c3scnc3C)ccc2CNC(=O)[C@@H]2C[C@@H](O)CN2C(=O)[C@@H](NC(=O)C2(F)CC2)C(C)(C)C)cc1Nc1cccc(-c2ncn(C)n2)c1OC [CPD-102, 6-(2-(3-(2-(((2S,4R)-1-((S)-2-(1-Fluorocyclopropane-1-carboxamido)-3,3-dimethylbutanoyl)-4-hydroxypyrrolidine-2-carboxamido)methyl)-5-(4-methylthiazol-5-yl)phenoxy)propanamido)acetamido)-4-((2-methoxy-3-(1-methyl-1H-1,2,4-triazol-3-yl)phenyl)amino)-N-methylpyridazine-3-carboxamide] | C (C: ≤20% TYK2 degradation) | C (C: ≤20% TYK2 degradation)
CNC(=O)c1nnc(NC(=O)CNC(=O)CCCOc2cc(-c3scnc3C)ccc2CNC(=O)[C@@H]2C[C@@H](O)CN2C(=O)[C@@H](NC(=O)C2(F)CC2)C(C)(C)C)cc1Nc1cccc(-c2ncn(C)n2)c1OC [CPD-103, 6-(2-(4-(2-(((2S,4R)-1-((S)-2-(1-Fluorocyclopropane-1-carboxamido)-3,3-dimethylbutanoyl)-4-hydroxypyrrolidine-2-carboxamido)methyl)-5-(4-methylthiazol-5-yl)phenoxy)butanamido)acetamido)-4-((2-methoxy-3-(1-methyl-1H-1,2,4-triazol-3-yl)phenyl)amino)-N-methylpyridazine-3-carboxamide] | C (C: ≤20% TYK2 degradation) | C (C: ≤20% TYK2 degradation)
CNC(=O)c1nnc(NC(=O)CNC(=O)CCCCOc2cc(-c3scnc3C)ccc2CNC(=O)[C@@H]2C[C@@H](O)CN2C(=O)[C@@H](NC(=O)C2(F)CC2)C(C)(C)C)cc1Nc1cccc(-c2ncn(C)n2)c1OC [CPD-104, 6-(2-(5-(2-(((2S,4R)-1-((S)-2-(1-Fluorocyclopropane-1-carboxamido)-3,3-dimethylbutanoyl)-4-hydroxypyrrolidine-2-carboxamido)methyl)-5-(4-methylthiazol-5-yl)phenoxy)pentanamido)acetamido)-4-((2-methoxy-3-(1-methyl-1H-1,2,4-triazol-3-yl)phenyl)amino)-N-methylpyridazine-3-carboxamide] | C (C: ≤20% TYK2 degradation) | C (C: ≤20% TYK2 degradation)
CNC(=O)c1nnc(NC(=O)CNC(=O)CCCCCOc2cc(-c3scnc3C)ccc2CNC(=O)[C@@H]2C[C@@H](O)CN2C(=O)[C@@H](NC(=O)C2(F)CC2)C(C)(C)C)cc1Nc1cccc(-c2ncn(C)n2)c1OC [CPD-105, 6-(2-(6-(2-(((2S,4R)-1-((S)-2-(1-Fluorocyclopropane-1-carboxamido)-3,3-dimethylbutanoyl)-4-hydroxypyrrolidine-2-carboxamido)methyl)-5-(4-methylthiazol-5-yl)phenoxy)hexanamido)acetamido)-4-((2-methoxy-3-(1-methyl-1H-1,2,4-triazol-3-yl)phenyl)amino)-N-methylpyridazine-3-carboxamide] | C (C: ≤20% TYK2 degradation) | C (C: ≤20% TYK2 degradation)
CNC(=O)c1nnc(NC(=O)CNC(=O)CCCCCCOc2cc(-c3scnc3C)ccc2CNC(=O)[C@@H]2C[C@@H](O)CN2C(=O)[C@@H](NC(=O)C2(F)CC2)C(C)(C)C)cc1Nc1cccc(-c2ncn(C)n2)c1OC [CPD-106, 6-(2-(7-(2-(((2S,4R)-1-((S)-2-(1-Fluorocyclopropane-1-carboxamido)-3,3-dimethylbutanoyl)-4-hydroxypyrrolidine-2-carboxamido)methyl)-5-(4-methylthiazol-5-yl)phenoxy)heptanamido)acetamido)-4-((2-methoxy-3-(1-methyl-1H-1,2,4-triazol-3-yl)phenyl)amino)-N-methylpyridazine-3-carboxamide] | C (C: ≤20% TYK2 degradation) | C (C: ≤20% TYK2 degradation)
